Data: patent publication US11098040B2, “Compounds and methods of use” (Ferro Therapeutics, Inc., priority 2018, dated 2021)
Like-named read-outs stand apart in the source and are kept apart here.

How the values were obtained:
KP4 = assay: Cell viability assay (CellTiter Glo), pancreatic ductal adenocarcinoma KP4; type: cell-based, human
Summary of the method: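 Luminescent ATP readout (CellTiter Glo) after 96 h compound exposure, normalized to DMSO-treated cells as maximum. Compounds ran in duplicate, nine 3-fold steps from 30 μM down to 4.6 nM, final DMSO ≤0.25%; KP4 plated overnight at 1,000–10,000 cells/well. Outputs: IC50, relative IC50 or % top inhibition.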

[1] = Whole blood stability, mouse; type: in vitro ADME
Text: (§1) The results of the assay on stability in blood and IC50 values for pancreatic cancer cell line KP4 are given below in Table 24.

[2] = Whole blood stability, human; type: in vitro ADME
Text: as §1

A549 = assay: Cell viability assay, A549 cells; type: cell-based
Method: Example 5: Inducer Compound Effect on Growth of A549 and KP4 Cells
Cell viability assay was performed to assess the potency of the compounds in cancer cell line KP4 (pancreatic ductal adenocarcinoma). Cells at a density of 1,000-10,000 cells/well were seeded in 96-well plates and incubated at 37° C. overnight. A series of 9 different concentrations of compound stocks (500×) were created by 3-fold serial dilution in DMSO. These compounds were further diluted in culture media and then added to cells so that the final DMSO concentration was equal to 0.25% or less. After 96 hours of incubation, 50 μL of CellTiter Glo reagent (Promega) was added to each well and luminescence was measured after 10 minutes using EnVision (PerkinElmer). All compounds were tested initially from 30 μM as the top concentration in duplicates (range of 4.6 nM-30 μM). […] Luminescence from cells treated with DMSO alone was set as Max and % of inhibition was calculated as follows: Inhibition %=(Max-Sample value)/Max*100. Data was analyzed using XL-fit software (ID Business Solutions Ltd.). IC50, relative IC50, or % of top inhibition was calculated. […]

SJSA-1 = assay: Cell proliferation (Alamar Blue) assay, SJSA-1 osteosarcoma, with/without ferrostatin; type: cell-based, human; details: read-out: IC50
Method: (§2) Cell viability assay was performed to assess the potency of the compounds in human cancer cell lines 786-O (renal cell carcinoma) and SJSA-1 (osteosarcoma). Additional cell lines, such as those described above in Example 4 as well as various others, e.g., pancreatic cancer cell lines (Panc 02.13, BxPC-3, Panc 12, Panc 02.03, Panc 6.03, PSN-1, HPAC, and Capan-1) and prostate cancer cell lines (PC-3, DU145, 22Rv1, NCI-H660, BPH1, LNCaP, BM-1604, and MDA PCa 2b), were tested for select compounds as shown in Table 25.
(§3) Cells (SJSA-1, 786-O and A431) were seeded (5000 cells/100 μL/well) in 96-well tissue culture plate and incubated at 37° C./5% CO2 for 16-24 hours. The cells were then treated with compounds (25 μL of 5×). The compound concentrations were 10-0.0005 μM prepared in 3-fold serial dilutions with final DMSO concentration of 1%. The plates were then incubated for 24 h at 37° C./5% CO2 in a moist environment. Then Alamar Blue™ reagent (final concentration 1×-12.5 μL) was added to each well and incubated for 1.5 hours at 37° C./5% CO2. The plates were read on fluorescence reader at 540 nm excitation and 590 nm emission wavelengths. The IC50 values were subsequently determined using a sigmoidal dose-response curve (variable slope) in GraphPad Prism® 5 software.
(§4) Studies have shown that lipophilic antioxidants, such as ferrostatin, can rescue cells from GPX4 inhibition-induced ferroptosis. For instance, mesenchymal state GPX4-knockout cells can survive in the presence of ferrostatin, however, when the supply of ferrostatin is terminated, these cells undergo ferroptosis (see, e.g., Viswanathan et al., Nature 547:453-7, 2017). […] Accordingly, the ability of a molecule to induce ferroptotic cancer cell death, and that such ability is admonished by the addition of ferrostatin, is clear indication that the molecule is an GPX4 inhibitor.

786-O = assay: Cell proliferation (Alamar Blue) assay, 786-O renal cell carcinoma, with/without ferrostatin; type: cell-based; details: Homo sapiens, 786-0, Cell Line 786-O; read-out: IC50
Method: as §2, §3, §4

[3] = Homo sapiens, KP-4, 96 h, pancreatic cancer cell line KP4, 96 hours, CellTiter Glo, read-out: IC50 μM KP4
[4] = Homo sapiens, A549, Cell Line A549, read-out: IC50
[5] = Homo sapiens, KP-4, Cell Line KP4, read-out: IC50
[6] = Homo sapiens, SJSA-1, Cell Line SJSA-1
[7] = Homo sapiens, A549, A549, read-out: IC50 for A549

IC50 (A549; [4]) [µM] | IC50 (KP4; [5]) [µM] | IC50 (SJSA-1; [6]) [µM] | IC50 (786-O) [µM] | SMILES | other results
> 30 | – | 0.146 | 8.19 | C#CC(=O)N1[C@@H](CCCC)Cc2c([nH]c3c(F)cc(CO)cc23)[C@@H]1c1ccc(F)cc1 [Compound 134] | –
7.95 | – | 0.108 | 0.117 | C#CC(=O)N1[C@@H](CCCC)Cc2c([nH]c3ccccc23)[C@@H]1C12CC(F)(C1)C2 [Compound 154] | –
8.52 | – | 0.081 | 0.113 | C#CC(=O)N1[C@@H](CCCC)Cc2c([nH]c3ccc(OC)cc23)[C@@H]1c1ccc(F)cc1 [Compound 155] | –
28.4 | – | > 30 | > 30 | CC#CC(=O)N1[C@@H](CCCC)Cc2c([nH]c3ccccc23)[C@@H]1c1ccc(F)cc1 [Compound 180] | –
> 30 | – | 16.2 | 12.3 | C=C(C(=O)N1[C@@H](CCCC)Cc2c([nH]c3ccccc23)[C@@H]1c1ccc(F)cc1)C(F)(F)F [Compound 184] | –
22 | > 30 | – | – | C[C@H]1Cc2c([nH]c3ccccc23)[C@H](c2ccc(N3CCOCC3)cc2)N1C(=O)/C=C/C(F)(F)F [Compound 230] | –
8.14 | 10.4 | – | – | CC(C)(C)OC(=O)c1ccc([C@H]2c3[nH]c4ccccc4c3C[C@H](CO)N2C(=O)CCl)cc1 [Compound 257] | –
4.45 | 8.69 | – | – | COC(=O)[C@H]1Cc2c([nH]c3ccccc23)[C@H](c2ccc(C(=O)OC(C)(C)C)cc2)N1C(=O)C(C)(C)CCl [Compound 264] | –
25.4 | – | – | – | COC(=O)[C@H]1Cc2c([nH]c3ccccc23)[C@H](c2ccc(O)cc2)N1C(=O)CCl [Compound 265] | IC50 (KP4; [3]): 0.1 to 0.5 µM; Whole Blood Stability % Remaining at 37° C. Mouse ([1]; 0 min): 100.0%; Whole Blood Stability % Remaining at 37° C. Mouse ([1]; 30 min): 75.5%; Whole Blood Stability % Remaining at 37° C. Mouse ([1]; 60 min): 61.6%; Whole Blood Stability % Remaining at 37° C. Human ([2]; 0 min): 100.0%; Whole Blood Stability % Remaining at 37° C. Human ([2]; 30 min): 61.6%; Whole Blood Stability % Remaining at 37° C. Human ([2]; 60 min): 45.2%
– | – | 0.38 | 0.21 | COc1ccc2c(c1)C[C@H](C)N(C(=O)CCl)[C@H]2c1ccc(C(=O)NC2CC2)cc1 [Compound 280] | –
– | – | 0.03 | 0.067 | C[C@H]1Cc2c([nH]c3ccccc23)[C@H](c2ccc(S(=O)(=O)NC3CCN(C(=O)OC(C)(C)C)CC3)cc2)N1C(=O)CCl [Compound 293, tert-butyl-4-((4-((1S,3S)-2-(2-chloroacetyl)-3-methyl-2,3,4,9-tetrahydro-1H-pyrido[3,4-b]indol-1-yl)phenyl)sulfonamido)piperidine-1-carboxylate] | –
– | 0.362 | – | – | C[C@H]1Cc2c([nH]c3ccc(Cl)cc23)[C@H](c2ccc(N3CCOCC3)cc2)N1C(=O)CCl [Example 120] | IC50 (A549; [7]): 0.81 µM

The next lines start with the molecule.

SMILES | IC50 (A549; [4]) [µM] | IC50 (KP4; [5]) [µM] | IC50 (SJSA-1; [6]) [µM] | IC50 (786-O) [µM] | other results
CC[C@H]1Cc2c([nH]c3ccccc23)[C@H](c2ccc(N3CCOCC3)cc2)N1C(=O)CCl [Compound 117] | 4.71 | – | – | – | IC50 (KP4; [3]): < 0.01 µM; Whole Blood Stability % Remaining at 37° C. Mouse ([1]; 0 min): 100.0%; Whole Blood Stability % Remaining at 37° C. Mouse ([1]; 30 min): 92.3%; Whole Blood Stability % Remaining at 37° C. Mouse ([1]; 60 min): 45.8%; Whole Blood Stability % Remaining at 37° C. Human ([2]; 0 min): 100.0%; Whole Blood Stability % Remaining at 37° C. Human ([2]; 30 min): 80.5%; Whole Blood Stability % Remaining at 37° C. Human ([2]; 60 min): 70.3%
CC(C)[C@H]1Cc2c([nH]c3ccccc23)[C@H](c2ccc(N3CCOCC3)cc2)N1C(=O)CCl [Compound 119] | 12.8 | 0.102 | – | – | –
C[C@H]1Cc2c([nH]c3ccc(Cl)cc23)[C@H](c2ccc(N3CCOCC3)cc2)N1C(=O)CCl [Compound 120] | 0.807 | – | – | – | IC50 (KP4; [3]): 0.1 to 0.5 µM
C#CC(=O)N1[C@@H](CCCCCC)Cc2c([nH]c3ccccc23)[C@@H]1c1ccc(F)cc1 [Compound 176] | 4.1 | – | 0.206 | – | IC50 (SJSA-1; Cell Line SJSA-1): 0.25 µM; IC50 (A549; Cell Line A549, read-out: IC50): 4.18 µM
C#CC(=O)N1[C@@H](c2ccc(F)cc2)c2[nH]c3ccccc3c2C[C@@H]1C1CCCC1 [Compound 177] | 3.22 | – | 0.0677 | 0.0788 | –
C=CC(=O)N1[C@@H](CCCC)Cc2c([nH]c3ccccc23)[C@@H]1c1ccc(F)cc1 [Compound 179] | 27.4 | – | > 30 | > 30 | –
C#CC(=O)N1[C@@H](C)Cc2c([nH]c3ccccc23)[C@@H]1C12CC(F)(C1)C2 [Compound 182] | > 30 | – | 0.667 | 0.962 | –
C=C(F)C(=O)N1[C@@H](CCCC)Cc2c([nH]c3ccccc23)[C@@H]1c1ccc(F)cc1 [Compound 186] | > 30 | – | > 30 | > 30 | –
CC(C)=CC(=O)N1[C@@H](c2ccc(N3CCOCC3)cc2)c2[nH]c3ccccc3c2C[C@@H]1C [Compound 225] | > 30 | – | – | > 10 | –
C/C=C/C(=O)N1[C@@H](c2ccc(N3CCOCC3)cc2)c2[nH]c3ccccc3c2C[C@@H]1C [Compound 228] | > 30 | > 30 | – | – | –
C=C(C)C(=O)N1[C@@H](c2ccc(N3CCOCC3)cc2)c2[nH]c3ccccc3c2C[C@@H]1C [Compound 229] | > 30 | > 30 | – | – | –
C[C@H]1Cc2c([nH]c3ccc(C(C)(C)O)cc23)[C@H](c2ccc(N3CCOCC3)cc2)N1C(=O)CCl [Compound 235] | 7.18 | 0.041 | – | – | –
C[C@H]1Cc2c([nH]c3ccccc23)[C@H](c2ccc(C3(O)COC3)cc2)N1C(=O)CCl [Compound 236] | 17.5 | 1.2 | – | – | IC50 (KP4; Cell Line KP4, read-out: IC50): > 1 µM
C[C@H]1Cc2c([nH]c3ccccc23)[C@H](c2ccc(C3(O)CCOCC3)cc2)N1C(=O)CCl [Compound 237] | 1.86 | 0.458 | – | – | –
C=CC(=O)N1[C@@H](c2ccc(N3CCOCC3)cc2)c2[nH]c3ccccc3c2C[C@@H]1C [Compound 238] | > 10 | > 10 | – | – | –
[2H]C([2H])(Cl)C(=O)N1[C@@H](c2ccc(C(=O)NC34CC5CC(CC(C5)C3)C4)cc2)c2[nH]c3ccccc3c2C[C@@H]1C(=O)OC [Compound 250] | 2.4 | – | – | – | –
CN(C)C(=O)[C@H]1Cc2c([nH]c3ccccc23)[C@H](c2ccc(N)cc2)N1C(=O)CCl [Compound 259] | 7.97 | 0.179 | – | – | IC50 (KP4; Cell Line KP4, read-out: IC50): 0.212 µM
CC#CC(=O)N1[C@@H](c2ccc(C(=O)OC)cc2)c2[nH]c3ccccc3c2C[C@@H]1C(=O)OC [Compound 272] | 6.45 | 3.99 | – | – | –
C=CC(=O)N1[C@@H](c2ccc(C(=O)OC)cc2)c2[nH]c3ccccc3c2C[C@@H]1C(=O)OC [Compound 274] | 11.8 | 4.54 | – | – | –
COc1ccc2[nH]c3c(c2c1)C[C@H](C)N(C(=O)CCl)[C@H]3c1ccc(F)cc1 [Compound 281] | – | – | 0.261 | 0.206 | –
C#CC(=O)N1[C@@H](c2ccc(F)cc2)c2[nH]c3ccc(OC)cc3c2C[C@@H]1C [Compound 282] | – | – | 0.436 | 0.223 | –
COC(=O)c1ccc([C@H]2c3[nH]c4ccc(Cl)cc4c3C[C@H](C(=O)OC)N2C(=O)CCl)cc1 [Example 93] | – | – | – | – | IC50 (A549; [7]): 0.25 µM
COCCOCCOCCOCCOC(=O)[C@H]1Cc2c([nH]c3ccccc23)[C@H](c2ccc(NC34CC5CC(CC(C5)C3)C4)cc2)N1C(=O)CCl [Example 189] | 4.11 | – | 4.2 | – | –
